Reference: PMC6440977, “Nucleoside analogue activators of cyclic AMP-independent protein kinase A of Trypanosoma” (Nature Communications, 2019)
pEC50: −log10 of the molar value. Several values for one entry are separate records, joined by “and”; a condition that tells them apart may be missing. Equal values may be shown once.

Columns and labels:
T. brucei PKA = T. brucei PKA (Trypanosoma brucei brucei, UniProt Q9GU80); experiment: In vivo PKA reporter assay (VASP Ser-157 phosphorylation, western blot); assay type: cell-based; conditions: for effect on in vivo PKA activity (VASP phosphorylation), in words: wild type background; for % VASP phosphorylation: independent replicates;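 for % VASP phosphorylation: Phosphorylated VASP as percent of total VASP band signal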;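 for all read-outs here: T. brucei cells expressing human VASP as heterologous PKA substrate, compound exposure at 37 °C, western blot of phospho (50 kDa) versus unphosphorylated (46 kDa) VASP band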
T. brucei BSF cells (WT) = experiment: Alamar blue cell viability assay, wild type; conditions: read-out: EC50, Alamar blue cell viability assay, WT; individual replicate results; wild type cells;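 note: trypanosomes seeded at 5×10^3 per ml and grown 72 h with compound, then resazurin 0.5 mM added for 4 h as the viability read-out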
[1] = tested on: T. brucei ∆pkar/∆pkar (pkar KO) cells; experiment: microbe, parasite or virus in culture; assay type: cell-based, Trypanosoma brucei; conditions: read-out: EC50, Alamar blue cell viability assay, KO; individual replicate results; pkar KO cells

Chain of T. brucei PKA (Q38DS1 entry or part of it): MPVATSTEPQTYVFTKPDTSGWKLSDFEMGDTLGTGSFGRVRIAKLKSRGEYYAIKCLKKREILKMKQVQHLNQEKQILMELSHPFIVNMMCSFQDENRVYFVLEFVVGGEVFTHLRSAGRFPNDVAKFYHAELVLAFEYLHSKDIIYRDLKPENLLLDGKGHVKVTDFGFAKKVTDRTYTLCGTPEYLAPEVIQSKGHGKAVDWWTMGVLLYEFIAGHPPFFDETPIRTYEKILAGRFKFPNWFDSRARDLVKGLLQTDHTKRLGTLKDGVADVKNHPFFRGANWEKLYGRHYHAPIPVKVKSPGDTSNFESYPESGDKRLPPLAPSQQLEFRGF
Chain of T. brucei PKA (Q38DR5 entry or part of it, further chain): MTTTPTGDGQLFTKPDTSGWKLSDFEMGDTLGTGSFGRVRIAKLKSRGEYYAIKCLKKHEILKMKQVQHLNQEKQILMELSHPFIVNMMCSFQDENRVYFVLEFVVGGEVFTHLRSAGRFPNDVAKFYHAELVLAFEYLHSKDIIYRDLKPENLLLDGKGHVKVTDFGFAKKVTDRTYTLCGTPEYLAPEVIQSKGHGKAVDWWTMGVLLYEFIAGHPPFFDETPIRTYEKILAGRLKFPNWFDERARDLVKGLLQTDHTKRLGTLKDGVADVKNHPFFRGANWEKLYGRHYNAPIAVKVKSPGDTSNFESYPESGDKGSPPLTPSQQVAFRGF
Chain of T. brucei PKA (Q9GU80 entry or part of it): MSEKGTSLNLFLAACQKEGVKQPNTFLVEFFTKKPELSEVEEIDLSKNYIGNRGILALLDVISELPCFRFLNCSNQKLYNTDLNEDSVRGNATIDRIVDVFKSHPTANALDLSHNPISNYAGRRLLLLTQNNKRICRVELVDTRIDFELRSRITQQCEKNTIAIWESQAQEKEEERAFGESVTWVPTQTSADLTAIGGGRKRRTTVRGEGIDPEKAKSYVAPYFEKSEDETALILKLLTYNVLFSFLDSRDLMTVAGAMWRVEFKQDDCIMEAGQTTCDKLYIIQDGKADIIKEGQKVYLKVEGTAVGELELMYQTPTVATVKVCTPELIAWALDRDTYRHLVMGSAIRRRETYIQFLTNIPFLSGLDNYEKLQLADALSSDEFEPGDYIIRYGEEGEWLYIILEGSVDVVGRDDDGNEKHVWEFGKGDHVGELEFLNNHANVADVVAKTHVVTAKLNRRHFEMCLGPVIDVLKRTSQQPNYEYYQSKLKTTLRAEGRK

SMILES	effect on in vivo PKA activity (VASP phosphorylation), in words (T. brucei PKA)	% VASP phosphorylation (T. brucei PKA; 10 µM)	% VASP phosphorylation (T. brucei PKA; 20 µM)	% VASP phosphorylation (T. brucei PKA; 50 µM)	% VASP phosphorylation (T. brucei PKA; 100 µM)	also measured
Nc1nc(Cl)nc2c1ncn2[C@@H]1O[C@H](CO)[C@@H](O)[C@H]1O [2-Cl-Ado, 2-Chloroadenosine]	no effect	–	–	–	–	–
Nc1ncnc2c1c(Br)cn2[C@@H]1O[C@H](CO)[C@@H](O)[C@H]1O [5BrTu]	–	–	–	–	–	pEC50 (T. brucei BSF cells (WT)): 6.21 and 5.81 and 5.95 and 6.23 and 5.97 and 6.13 and 6.22 and 6.16; pEC50 [1]: 6.17 and 5.92 and 5.90 and 5.96 and 6.21 and 6.10 and 5.93
Nc1ncnc2c1c(I)cn2[C@@H]1O[C@H](CO)[C@@H](O)[C@H]1O [5ITu]	–	–	–	–	–	pEC50 (T. brucei BSF cells (WT)): 6.87 and 6.42 and 6.33 and 6.38 and 6.54 and 6.41 and 6.50 and 6.61; pEC50 [1]: 6.44 and 6.27 and 6.77 and 6.46 and 6.56 and 6.58 and 6.35
Nc1ncnc2c1cc(Br)n2[C@@H]1O[C@H](CO)[C@@H](O)[C@H]1O [6-Br-Tu, 8-Bromo-7-deazaadenosine]	no effect	–	–	–	–	–
OC[C@H]1O[C@@H](n2cnc3c(Cl)ncnc32)[C@H](O)[C@@H]1O [6-Cl-PuR, 6-Chloropurine riboside]	no effect	20.6897% and 25.2945% and 23.0524%	24.6262% and 26.5882% and 23.4334%	28.7467% and 26.8897% and 25.4464%	33.239% and 35.1611% and 28.0731%	% VASP phosphorylation (T. brucei PKA; 2 µM): 27.0392% and 26.6154% and 24.2815%; % VASP phosphorylation (T. brucei PKA; 5 µM): 24.7092% and 27.9877% and 23.4187%
Nc1ncnc2c1nc(Br)n2[C@@H]1O[C@H](CO)[C@@H](O)[C@H]1O [8-Br-Ado, 8-Bromoadenosine]	no effect	–	–	–	–	–
CO[C@@H]1[C@H](O)[C@@H](CO)O[C@H]1n1c(Sc2ccc(Cl)cc2)nc2c(N)ncnc21 [8-pCPT-2'O-me-Ado]	–	17.7877% and 18.0048% and 22.1674%	16.9524% and 18.6949% and 22.9783%	17.4825% and 18.9639% and 23.6777%	18.5972% and 20.7972% and 25.3942%	% VASP phosphorylation (T. brucei PKA; 250 µM): 20.7922% and 23.6499% and 24.007%
CO[C@@H]1[C@@H]2OP(=O)(O)OC[C@H]2O[C@H]1n1c(Sc2ccc(Cl)cc2)nc2c(N)ncnc21 [8-pCPT-2'O-me-cAMP]	–	41.2113% and 39.9561% and 36.9456%	34.7976% and 43.6436% and 30.9578%	31.7213% and 39.4904% and 29.8481%	33.7045% and 41.4368% and 33.2969%	% VASP phosphorylation (T. brucei PKA; 250 µM): 30.1497% and 39.413% and 35.4525%
COC1C2OP(=O)(O)OCC2OC1n1c(Sc2ccc(Cl)cc2)nc2c(=O)[nH]c(N)nc21 (stereo not drawn) [8-pCPT-2'O-me-cGMP]	–	38.4582% and 35.5972% and 37.6064%	40.2883% and 38.6651% and 38.3333%	40.3308% and 52.7132% and 36.328%	39.4763% and 48.2408% and 35.1104%	% VASP phosphorylation (T. brucei PKA; 250 µM): 43.9368% and 67.0264% and 36.1457%
CO[C@@H]1[C@H](O)[C@@H](CO)O[C@H]1n1c(Sc2ccc(Cl)cc2)nc2c(N)ncnc21 [8-pCPT-2-′O-Me-Ado, 8-(4-Chlorophenylthio)-2'-O-methyladenosine]	slight inhibitory	–	–	–	–	–
CO[C@@H]1[C@@H]2OP(=O)(O)OC[C@H]2O[C@H]1n1c(Sc2ccc(Cl)cc2)nc2c(N)ncnc21 [8-pCPT-2′-O-Me-cAMP, 8-(4-Chlorophenylthio)-2'-O-methyladenosine-3',5'-cyclic monophosphate]	No PKA activation	–	–	–	–	–
Nc1ncnc2nc(Sc3ccc(Cl)cc3)[nH]c12 [8-pCPT-Ade, 8-(4-Chlorophenylthio)adenine]	no effect	–	–	–	–	–
Nc1ncnc2c1nc(Sc1ccc(Cl)cc1)n2[C@@H]1O[C@H](CO)[C@@H](O)[C@H]1O [8-pCPT-Ado, 8-(4-Chlorophenylthio)adenosine]	slight inhibitory	–	–	–	–	–
